What was measured:
CRT = experiment: Inhibitory profile of CRT exposure (pre-incubation with inhibitors, immunocytofluorometry); assay type: cell-based; details: pre-incubation for 1 h
Protocol: FIG. 3S: Inhibitory profile of CRT exposure. Cells were treated with mitoxantrone or inhibitors of PP1/GADD34, after pre-incubation for 1 h with the indicated inhibitors of protein synthesis (cycloheximide), RNA synthesis (actinomycin D), microtubuli (nocodazol), or the actin cytoskeleton (latrunculin A). Then, CRT expression was determined by immunocytofluorometry. Results are means of triplicates±SD for one representative experiment out of three.

cell surface CRT = experiment: Fluorescence detection of cell surface CRT on CT26 cells (cytofluorometry); assay type: cell-based, murine; details: agent alone
Protocol: FIG. 1SA, FIG. 1SB: Kinetics of CRT exposure. CT26 cells were treated with mitoxantrone for the indicated period, followed by immunofluorescence staining with a CRT-specific antibody and cytofluorometric analysis.
FIG. 2E: Correlation between CRT exposure and immunogenicity. The surface exposure of CRT was determined by immunofluorescence cytometry while gating on viable (propidium iodine-negative) cells (inserts) and was correlated with the immunogenicity of cell death (as determined in FIG. 1). CO, control; Tg, thapsigargin; Tu, tunicamycin.
FIG. 5E: Kinetics of CRT exposure determined by FACS analysis after incubation of cells with the indicated agents.
FIG. 5F-FIG. 5G: PP1/GADD34 inhibitors render cell immunogenic via CRT. Tumour cells were first transfected with a control siRNA or a CRT-specific siRNA and then treated in vitro with etoposide, alone or in combination with PP1/GADD34 inhibitors. […] The results represent the % of tumour free mice (comprising a total of 12 to 18 mice per group).
CT26 cells (on a glass slide or in 12-well plates) were first washed with FACS buffer (1×PBS, 5% fetus bovine serum, and 0.1% sodium azide) and then incubated with rabbit anti-mouse CRT antibody (1:100, Stressgen) in FACS buffer at 4° C. for 30 min. Cells reacted with anti-rabbit IgG (H+L) Alexa fluor 488-conjugates (1:500) in FACS buffer at 4° C. for 30 min. After washing three times with FACS buffer, surface CRT was detected by cytofluorometric analysis on a FACS Vantage. In some experiments, cells were fixed with 4% paraformaldehyde, counterstained with Hoechst (2 μM; Sigma), followed by fluorescence microscopic assessment with a Leica IRE2 microscope equipped with a DC300F camera.

CT26 tumours [1] = experiment: Intratumoural treatment of established CT26 tumours in immunocompetent mice; assay type: in vivo, BALB/c mice (wild type)
CT26 tumour cells = experiment: Anti-tumour vaccination: dying treated CT26 cells injected in one flank, later challenge with live tumour cells; assay type: in vivo, BALB/c mice; details: without cell death inducer
CT26 tumours [2] = experiment: Intratumoural treatment of established CT26 tumours in immunodeficient mice; assay type: in vivo, athymic nu/nu Balb/c mice; details: single intratumoural injection
ERp57 = experiment: Flow cytometric detection of surface ERp57 on HeLa cells; assay type: cell-based, human; details: 150 nM, 2 h
Protocol: HeLa cells were treated with or without mitoxantrone (MTX, 1 μM) or tautomycin (Tau, 150 nM, Sigma) for 2 h. Cells were washed twice with PBS and fixed in PFA (4% w/v) for 5 min. HeLa cells were stained with an antibody against Erp57 (pAb from Abcam, ab10827) at 1:200 dilution or isotype control, in staining buffer (PBS, 1% FCS) for 30 min on ice, followed by washing. An anti-rabbit Alexa fluor 488 immunoglobulin conjugate (Molecular Probes-Invitrogen) diluted at 1:500 was added for an additional 30 min on ice before washing and analysed by flow cytometry (FACScan, Becton Dickinson). Propidium Iodide (50 μg/ml, Becton Dickinson) was added to the samples to label and exclude permeabilized (dead) cells. The CellQuest software was used to analyse the mean fluorescence intensity (MFI) and the percentage of ERp57 positive cells.

Compound | effect on CRT exposure induced by anthracyclins and PP1/GADD34 inhibitors (CRT) | induction of CRT exposure at the cell surface (cell surface CRT) | therapeutic effect combined with a cell death inducer (etoposide or mitomycin C), immunocompetent mice (CT26 tumours [1]; intratumoural injection with etoposide or mitomycin C) | therapeutic effect of single agent on established tumours, immunocompetent mice (CT26 tumours [1]; single intratumoural injection, 14-day-old CT26 tumours) | induction of immunogenic cell death by the inhibitor alone (CT26 tumour cells) | therapeutic effect of single agent on established tumours, nu/nu mice (CT26 tumours [2]) | surface exposure of ERp57, HeLa cells (ERp57)
C/C1=C/C(=O)O[C@@H]2C[C@@H](CC[C@H](C)/C=C\C=C\CC1)O[C@@](O)([C@@H]1CSC(=O)N1)C2 [latrunculin A] | abolished |  |  |  |  |  | 
CO[C@H]([C@H](O)CC(=O)[C@@H](C)[C@@H](O)CC[C@@H](C)[C@@H]1O[C@]2(CC[C@@H](C)[C@H](CC[C@H](C)C(C)=O)O2)CC[C@@H]1C)[C@H](OC(=O)C[C@@H](O)C1=C(C)C(=O)OC1=O)C(C)C [tautomycin] |  | efficiently induced | stable disease or complete tumour regression | no major therapeutic effect | not sufficient to induce immunogenic cell death | no major therapeutic effect | stimulates the surface exposure or ERp57

— patent US8129340B2, “Inhibitors of protein phosphatase 1, GADD34 and protein phosphatase 1/GADD34 complex, preparation and uses thereof” (Institut Gustave Roussy, priority 2006, dated 2012)
